{
  "source": "patent US7803402B2",
  "about": "“Pharmaceutical preparations” (priority 2002, dated 2010)",
  "origin": "cited, not measured here",
  "key": {"[1]": {"conditions": "cefixime in the circulation"}, "[2]": {"conditions": "in vivo"}},
  "data": [
    {"smiles": "C=CC1=C(C(=O)O)N2C(=O)[C@@H](NC(=O)/C(=N\\OCC(=O)O)c3csc(N)n3)[C@H]2SC1", "note": "[Cefixime]", "values": [
      {"measurement": "bound to plasma proteins", "setting": "[1]", "value": "About 65%"},
      {"measurement": "solubility in dehydrated alcohol", "setting": "dehydrated alcohol", "value": "sparingly soluble"},
      {"measurement": "solubility in ethyl acetate", "setting": "ethyl acetate", "value": "practically insoluble"},
      {"measurement": "solubility in methyl alcohol", "setting": "methyl alcohol", "value": "freely soluble"},
      {"measurement": "solubility in water", "setting": "water", "value": "slightly soluble"},
      {"measurement": "eliminated by nonrenal mechanisms", "setting": "[2]", "value": "Up to 60%"},
      {"measurement": "placental transfer", "setting": "[2]", "value": "crosses the placenta"},
      {"measurement": "removal by dialysis", "setting": "[2]", "value": "not substantially removed"}
    ]}
  ]
}
